Measurements reported in publication PMC10223877, “Impacts of PEGylation and Glycosylation on the Biological Properties of Host Defense Peptide IDR1018” (Pharmaceutics, 2023).
≈ marks a conversion by molar mass, not a printed value. Ends that are not written are not given here. Peptide text beside a SMILES is read from it. * marks the point of attachment. X1 = CC(=O)N[C@H]1C(*)O[C@H](CO)[C@@H](O)[C@@H]1O; X2 = O=C(CCOCCOCCOCCOCCOCCOCCO)*

How the values were obtained:
human PBMCs = assay: Immunomodulatory assay, chemokine and cytokine expression overall; assay type: cell-based
Experimental: (§2) To evaluate the capacity of the conjugates to modulate the immune system, suspended PBMCs (a final density of 1 × 10^5 cells well^−1) were treated with the conjugates at 8 μg mL^−1 in the presence or absence of 20 ng mL^−1 P. aeruginosa LPS, incubated for 24 h, centrifuged, and then the supernatants were collected to quantifying the levels of monocyte chemoattractant protein 1 (MCP-1), the tumor necrosis factor-alpha (TNFα), and interleukins (IL) IL-1β, IL-10, and the anti-inflammatory IL-1 receptor antagonist (IL-1RA) using specific ELISA assays (ELISA kits, eBioscience, Carlsbad, CA, USA). All experiments were conducted in triplicate in three independent experiments and average values were presented.

S. aureus MRSA0017 [1] = assay: Biofilm biomass, crystal violet staining assay; assay type: cell-based; conditions: at 64 µg mL^−1, relative to untreated samples
Description: (§3) A bacterial suspension of 1 × 10^7 CFU mL^−1 was used to establish biofilms prior to treatment with the peptides. Appropriate nutrient media for optimal biofilm formation were used, including TSB supplemented with 1% glucose for MRSA SAP0017, BM2 glucose for P. aeruginosa PA14, and LB media supplemented with 1% glucose for E. coli ATTC489 and A. baumannii 5015. In the crystal violet-based assay, untreated bacterial culture and sterile media were used as positive and negative controls, where the % of biofilm biomass was considered 100 and 0%, respectively. The % of biomass in the treated samples was determined relative to the positive and negative controls. A biofilm eradication assay [17] was also performed, for which the residual viable biofilm cell count (CFU mL^−1) was determined. Experiments were conducted in triplicate, in three independent experiments, and average values were presented with ± standard deviations.

[2] = Aggregation with PBMCs in tissue culture, microscopy; assay type: physicochemical, human; conditions: 32 μg mL^−1, PBMCs in RPMI, 4 h, 37 °C, 5% CO2, microscopy; triplicate in three independent experiments
Experimental: Furthermore, isolated peripheral blood mononuclear cells (PBMCs) seeded in 96-well flat-bottom tissue culture plates (Corning Inc., Corning, NY, USA) at a concentration of 2 × 10^6 in RMPI media were treated with the two conjugates at a final concentration of 32 μg mL^−1, incubated for 4 h at 37 °C in 5% CO2, and visualized on a Nikon Eclipse TS100 microscope. Experiments were performed in triplicate in three independent experiments.

IL-1β = assay: Immunomodulatory assay, ELISA of PBMC supernatant; assay type: cell-based, human; conditions: PBMCs, peptide 8 μg mL^−1 co-treated with 20 ng mL^−1 P. aeruginosa LPS, 24 h
Experimental: as §2

A. baumannii 5015 [3] = assay: Biofilm eradication assay (MBEC), preformed biofilms; assay type: cell-based; conditions: preformed A. baumannii 5015 biofilm, LB + 1% glucose; viable biofilm cell count; three independent experiments
Description: as §3

E. coli ATTC489 [4] = assay: as above; assay type: cell-based; conditions: LB + 1% glucose, viable biofilm cell count, three independent experiments
Description: as §3

[5] = Aggregation assay (turbidity) in sodium citrate or phosphate; assay type: physicochemical; conditions: sodium citrate and sodium phosphate, 0.1−1000 mM; OD600 relative to sterile water
Experimental: Solutions of IDR1018 peptide and the conjugates were tested for aggregation in saline (0.9% NaCl), 5% dextrose, and 10% RPMI tissue culture medium at 1 mg mL^−1. The solutions were placed in 96 well plates and sterile water was used as a negative control. The turbidity was determined for each sample as described in earlier reports. Similarly, the conjugates were screened for aggregation in the presence of sodium salts of polyatomic anions (citrate or phosphate) at various strengths (0.1−1000 mM). The % of aggregates was assessed relative to the OD600 of sterile water.

[6] = test system: MRSA SAP0017, P. aeruginosa PA14, E. coli ATTC489, A. baumannii 5015; assay: MIC, summary over the strains tested; assay type: cell-based; conditions: range over the four strains of Table 2
Experimental: (§1) The MIC was conducted using the liquid broth inhibition assay as previously described. MHB was used as a medium for bacterial growth, and bacteria (either MRSA SAP0017, P. aeruginosa PA14, E. coli ATTC489 or A. baumannii 5015) were suspended at ∼1 × 10^6 CFU mL^−1. The peptide conjugates were incubated with the bacterial cultures at various concentrations for ~18 h prior determination of bacterial growth optical density at 600 nm (OD600). The MIC was defined as the lowest concentration that led to no growth in the wells. All values are modal values of three independent experiments.

MCP-1 = assay: Immunomodulatory assay, ELISA of PBMC supernatant; assay type: cell-based, human; conditions: PBMCs, peptide 8 μg mL^−1 co-treated with 20 ng mL^−1 P. aeruginosa LPS, 24 h
Experimental: as §2

S. aureus MRSA0017 [7] = assay: MIC, liquid broth inhibition assay; assay type: cell-based; conditions: planktonic S. aureus MRSA0017; MHB, ~1 × 10^6 CFU mL^−1, ~18 h, OD600; modal values of three independent experiments
Experimental: as §1

P. aeruginosa PA14 [8] = assay: MIC, liquid broth inhibition assay; assay type: cell-based; conditions: planktonic P. aeruginosa PA14; MHB, ~1 × 10^6 CFU mL^−1, ~18 h, OD600; modal values of three independent experiments
Experimental: as §1

A. baumannii 5015 [9] = assay: MIC, liquid broth inhibition assay; assay type: cell-based; conditions: planktonic A. baumannii 5015; MHB, ~1 × 10^6 CFU mL^−1, ~18 h, OD600; modal values of three independent experiments
Experimental: as §1

E. coli ATTC489 [10] = assay: MIC, liquid broth inhibition assay; assay type: cell-based; conditions: planktonic E. coli ATTC489; MHB, ~1 × 10^6 CFU mL^−1, ~18 h, OD600; modal values of three independent experiments
Experimental: as §1

S. aureus MRSA0017 [11] = assay: Biofilm eradication assay (MBEC), preformed biofilms; assay type: cell-based; conditions: TSB + 1% glucose, viable biofilm cell count, three independent experiments
Description: as §3

IL-1RA = assay: Immunomodulatory assay, ELISA of PBMC supernatant; assay type: cell-based, human; conditions: PBMCs
Experimental: as §2

P. aeruginosa PA14 [12] = assay: Biofilm eradication assay (MBEC), preformed biofilms; assay type: cell-based; conditions: BM2 glucose, viable biofilm cell count, three independent experiments
Description: as §3

IL-10 = assay: Immunomodulatory assay, ELISA of PBMC supernatant; assay type: cell-based, human; conditions: PBMCs, peptide 8 μg mL^−1 co-treated with 20 ng mL^−1 P. aeruginosa LPS, 24 h
Experimental: as §2

[13] = at 128 µg mL^−1; LDH release, 24 h, 37 °C, RPMI + 10% FBS; 1% Triton X-100 = 100%
Experimental: The cytotoxicity of the conjugates was assessed in vitro against PBMCs as described earlier using the lactate dehydrogenase (LDH)-based assay [35]. Blood samples were collected from healthy donors with ethics approval and PBMCs were isolated following our previously reported protocol [35]. The cells were resuspended in RPMI medium supplemented with 10% FBS and seeded in tissue culture-treated plates at a final density of 1 × 10^5 cells well^−1. Subsequently, the cells were treated with the conjugates or IDR1018 and incubated for 24 h at 37 °C in 5% CO2, to determine the LDH release. Triton X-100 (1% final concentration) was used as a toxic (positive) control.

Question: For `CC[C@H](C)[C@H](NC(=O)[C@H](CCCNC(=N)N)NC(=O)[C@@H](NC(=O)[C@H](C)NC(=O)[C@@H](NC(=O)[C@@H](NC(=O)[C@H](CC(C)C)NC(=O)[C@H](CCCNC(=N)N)NC(=O)[C@@H](NC(=O)[C@@H](N)[C@@H](C)OC1O[C@H](CO)[C@@H](O)[C@H](O)[C@H]1NC(C)=O)C(C)C)[C@@H](C)CC)C(C)C)C(C)C)C(=O)N[C@@H](Cc1c[nH]c2ccccc12)C(=O)N[C@@H](CCCNC(=N)N)C(=O)N[C@@H](CCCNC(=N)N)C(N)=O` (stereo partly drawn) [Glc-IDR1018] (H-T(X1)VRLIVAVRIWRR-NH2), which “boost of the level of MCP1 and IL-1RA relative to unmodified IDR1018” value (human PBMCs; peptide 8 μg mL^−1, absence of LPS) is on record?
Answer: Its value is 2–5 fold.

Question: And the “ability to modulate chemokine and cytokine expression” value (human PBMCs; peptide 8 μg mL^−1, absence of an LPS stimulant)?
Answer: Its value is “significant increase in the expression of the immune mediators relative to unmodified IDR1018”.

Question: And the biomass reduction (S. aureus MRSA0017 [1])?
Answer: The biomass reduction was ≥ 90%.

Question: And the “aggregation when incubated with PBMCs in tissue culture” value [2]?
Answer: Its value is “neither peptide conjugate, PEG6-IDR1018, and Glc-IDR1018 showed any obvious sign of aggregation”.

Question: What about the “expression of IL-1β with LPS stimulation” value (IL-1β) of the same compound?
Answer: Its value is “significantly suppressed”.

Question: And the “MBEC (minimal biofilm eradication concentration)” value (shortened to “MBEC”) (A. baumannii 5015 [3])?
Answer: The value was 256 µg/mL.

Question: And the “MBEC” value (E. coli ATTC489 [4])?
Answer: Its value is 128 µg/mL.

Question: And the “turbidity in sodium salts of polyatomic anions” value [5]?
Answer: Its value is “no turbidity increase”.

Question: And the “MICs, range based on the strains tested” value [6]?
Answer: The value was 64 to 128 µg/mL.

Question: What about the “MCP1 induction level with LPS stimulation” value (MCP-1) of the same compound?
Answer: The value was “substantially higher expression values”.

Question: And the MIC (S. aureus MRSA0017 [7])?
Answer: The MIC was 64 µg/mL (≈ 34.8 µM).

Question: And the MIC (P. aeruginosa PA14 [8])?
Answer: The MIC was 128 µg/mL (≈ 69.6 µM).

Question: What about the MIC (A. baumannii 5015 [9]) of the same compound?
Answer: Its MIC is 64 µg/mL (≈ 34.8 µM).

Question: What about the MIC (E. coli ATTC489 [10]) of the same compound?
Answer: Its MIC is 64 µg/mL (≈ 34.8 µM).

Question: What about the “MBEC” value (S. aureus MRSA0017 [11]) of the same compound?
Answer: The value was 64 µg/mL.

Question: What about the “level of IL-1RA induced” value (IL-1RA; peptide 8 μg mL^−1, 24 h, absence of LPS, mean of three independent experiments) of the same compound?
Answer: The value was 0.8 ng/mL.

Question: What about the “IL-1RA induction level with LPS stimulation” value (IL-1RA; peptide 8 μg mL^−1 co-treated with 20 ng mL^−1 P. aeruginosa LPS, 24 h) of the same compound?
Answer: Its value is “substantially higher expression values”.

Question: What about the “MBEC” value (P. aeruginosa PA14 [12]) of the same compound?
Answer: Its value is 256 µg/mL.

Question: And the “IL-10 induction level with LPS stimulation” value (IL-10)?
Answer: Its value is “substantially higher expression values”.

Question: What does the source list for `CC[C@H](C)[C@H](NC(=O)[C@H](CCCNC(=N)N)NC(=O)[C@@H](NC(=O)[C@H](C)NC(=O)[C@@H](NC(=O)[C@@H](NC(=O)[C@H](CC(C)C)NC(=O)[C@H](CCCNC(=N)N)NC(=O)[C@@H](NC(=O)CCOCCOCCOCCOCCOCCOCCO)C(C)C)[C@@H](C)CC)C(C)C)C(C)C)C(=O)N[C@@H](Cc1c[nH]c2ccccc12)C(=O)N[C@@H](CCCNC(=N)N)C(=O)N[C@@H](CCCNC(=N)N)C(N)=O` [PEG6-IDR1018] (X2-VRLIVAVRIWRR-NH2)?
Answer: MBEC (minimal biofilm eradication concentration) (A. baumannii 5015 [3]): 128 µg/mL; MBEC (minimal biofilm eradication concentration) (E. coli ATTC489 [4]): 128 µg/mL; MICs, range based on the strains tested [6]: 32 to 64 µg/mL; MIC (S. aureus MRSA0017 [7]): 32 µg/mL (≈ 17.1 µM); MIC (P. aeruginosa PA14 [8]): 64 µg/mL (≈ 34.2 µM); MIC (A. baumannii 5015 [9]): 64 µg/mL (≈ 34.2 µM); MIC (E. coli ATTC489 [10]): 64 µg/mL (≈ 34.2 µM); MBEC (minimal biofilm eradication concentration) (S. aureus MRSA0017 [11]): 64 µg/mL; MBEC (minimal biofilm eradication concentration) (P. aeruginosa PA14 [12]): 256 µg/mL

Question: For VRLIVAVRIWRR-NH2 [IDR1018], which “cytotoxicity to PBMCs” value [13] is on record?
Answer: The value was “up to 20%”.

Question: And the “MBEC” value (A. baumannii 5015 [3])?
Answer: The value was 16 µg/mL.

Question: And the “MBEC” value (E. coli ATTC489 [4])?
Answer: Its value is 16 µg/mL.

Question: And the MIC (S. aureus MRSA0017 [7])?
Answer: The MIC was 16 µg/mL.

Question: What about the MIC (P. aeruginosa PA14 [8]) of the same compound?
Answer: The MIC was 16 µg/mL.

Question: And the MIC (A. baumannii 5015 [9])?
Answer: The MIC was 16 µg/mL.

Question: And the MIC (E. coli ATTC489 [10])?
Answer: The MIC was 16 µg/mL.

Question: What about the “MBEC” value (P. aeruginosa PA14 [12]) of the same compound?
Answer: The value was 16 µg/mL.
